Test results: patent US20070254903A1, “Novel Spiroindoline or Spiroisoquinoline Compounds, Methods of Use and Compositions Thereof” (ARENA PHARMACEUTICALS, INC., priority 2003, published 2007)

Tested on: isolated adult rat hearts
Experiment: Ischemia-Reperfusion Assay 2 (Langendorff apparatus)
Description: Male Sprague-Dawley rats (300-350 g body weight) were anesthetized with Inactin (100 mg/kg IP) 20 minutes prior to surgery. The chest wall was opened and the heart was rapidly excised and immediately placed into ice-cold Krebs-Henseleit (KH) buffer (118 mM NaCl, 4.7 mM KCl, 1.2 mM MgSO4, 1.2 mM KH2PO4, 1.5 mM CaCl2, 25 mM NaHCO3, 11 mM glucose […], and 0.005 mM EDTA) to produce cardiac arrest. The aorta was then cannulated and the heart retrogradely perfused with KH buffer maintained at 37° C. in a reservoir bubbled with 95% O2/5% CO2 (pH7.4) on the Langendorff apparatus at a constant pressure of 70 mmHg. Myocardial temperature was maintained at 37° C. by partially submerging the heart into a water-jacketed chamber filled with KH buffer. A water filled latex balloon attached to a metal cannula and inserted into the left ventricle via the mitral valve and connected to a pressure transducer (Powerlab, ADInstruments, Inc) was used for measurement of left ventricular pressure. The balloon was initially inflated to an end-diastolic pressure of 10 mmHg. After allowing 20 minutes for equilibration, rat hearts were subjected to 10 minutes of KH buffer containing drug or vehicle followed by 30 minutes of ischemia followed by 30 minutes of reperfusion. The difference between peak-systolic and end diastolic pressures, or left ventricular developed pressure (LVDP) was calculated as an index of contractile function and measured just prior to ischemia and at 10, 20 and 30 minutes of reperfusion. Percent recovery of LV function [(LVDP post reperfusion/LVDP pre-ischemia)[…]] was averaged across 5 vehicle and 4 drug treated hearts and one-way anova with Newman-Keuls Multiple Comparison Test was used to determine statistical significance.
Epicardial electrogram recordings were also taken from the isolated rat hearts used in FIGS. 3 and 4. Briefly, silver wire electrodes were placed on the right atrium and the apex of the left ventricle, allowing an epicardial electrogram to be recorded. […]

`C=CCN1CCC2(CC1)CN(C(=O)c1cccc(F)c1F)c1ccc(F)cc12` [Compound 75, 1′-(allyl)-1,2-dihydro-5-fluoro-1-(2,3-difluoro-benzoyl)-spiro[3H-indole-3,4′-piperidine]] was tested, and the “left ventricle function after reperfusion” value (30 μM, 30 min ischemia, 30 min reperfusion, compared to vehicle, FIG. 3) was “significant increase in left ventricle function after reperfusion”, the “end diastolic pressure (EDP), ischemic contracture” value (30 μM, compared to vehicle, FIG. 4) was “significant decrease in end diastolic pressure” and the “early reperfusion arrhythmias (hearts positive)” value (epicardial electrogram, first 5 minutes of reperfusion, FIG. 5) was “none of the four hearts”.
